From patent publication US9481899B2, “Methods and compositions for producing hydrocarbons” (priority 2008, dated 2016) come the findings set out here.

The test addresses T1, Npun02004178 protein (Nostoc punctiforme, UniProt B2J1M1).
T1 construct: made in house; host or cells: E. coli BL21 (DE3)
T1 sequence (B2J1M1 1-232): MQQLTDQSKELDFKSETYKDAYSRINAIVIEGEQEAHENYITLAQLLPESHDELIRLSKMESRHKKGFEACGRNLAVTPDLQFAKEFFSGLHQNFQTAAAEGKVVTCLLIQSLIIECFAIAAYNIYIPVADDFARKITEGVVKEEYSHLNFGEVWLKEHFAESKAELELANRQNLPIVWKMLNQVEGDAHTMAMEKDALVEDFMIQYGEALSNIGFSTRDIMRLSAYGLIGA
The test can be described thus: In-vitro fatty aldehyde decarbonylase assay. In kind it is biochemical, Nostoc punctiforme PCC73102. As to the method: The genomic DNA encoding N. punctiforme PCC73102 Npun02004178 (SEQ ID NO:5) was cloned into the NdeI and XhoI sites of vector pET-15b under the control of the T7 promoter. The resulting Npun02004178 protein contained an N-terminal His-tag. An E. coli BL21 strain (DE3) (Invitrogen) was transformed with the plasmid by routine chemical transformation techniques. Protein expression was carried out by first inoculating a colony of the E. coli strain in 5 mL of LB media supplemented with 100 mg/L of carbenicillin and shaken overnight at 37° C. to produce a starter culture. This starter cultures was used to inoculate 0.5 L of LB media supplemented with 100 mg/L of carbenicillin. […] Protein concentration was determined using the Bradford assay (Biorad). […]
To test Npun02004178 protein for decarbonylation activity, the following enzyme assays were set-up. […] Samples were analyzed by GC/MS using the following parameters: run time: 13.13 min; column: HP-5-MS Part No. 19091S-433E (length of 30 meters; I.D.: 0.25 mm narrowbore; film: 0.25 ìM); inject: 1 ìl Agilent 6850 inlet; inlet: 300 C splitless; carrier gas: helium; flow: 1.3 mL/min; oven temp: 75° C. hold 5 min, 320 at 40° C./min, 320 hold 2 min; det: Agilent 5975B VL MSD; det. temp: 330° C.; scan: 50-550 M/Z. Heptadecane from Sigma was used as an authentic reference for determining compound retention time and fragmentation pattern. […]

Turning to `CCCCCCCCCCCCCCCCCC=O` [octadecanal], the “in-vitro conversion of octadecanal to heptadecane” value is given as “conversion of octadecanal to heptadecane was observed” (30 μM Npun02004178, 200 μM octadecanal, spinach ferredoxin, spinach ferredoxin reductase, 1 mM NADPH, 37° C., 2 h); “conversion of octadecanal to heptadecane was observed” (NADPH, cyanobacterial ferredoxin oxidoreductase and any of the three cyanobacterial ferredoxins).
